Where a name gives a salt, the structure may show the parent alone. Read-outs that look alike come from different tables or passages of the source.
What was measured:
[1] = biological target: T1, SARS-CoV-2 PLpro (nsp3 1564–1878) (Severe acute respiratory syndrome coronavirus 2, UniProt P0DTD1); assay: biochemical; parameters: FRET-quenched peptide (Pro3) cleavage by PLpro, 10 min pre-incubation, slope over 20 min, normalised to no-compound control; conditions: high concentration screen, read-out: % of control remaining
[2] = biological target: T1, SARS-CoV-2 PLpro (nsp3 1564–1878); assay: biochemical; parameters: FRET-quenched peptide (Pro3) cleavage by PLpro, 10 min pre-incubation, slope over 20 min, normalised to no-compound control; conditions: low concentration screen, read-out: % of control remaining

C/C=C(/C)C(=O)O[C@H]1CC[C@@]2(C)[C@@H]3CC[C@H]4[C@]5(O)C[C@H](O)[C@@]6(O)[C@@H](CN7C[C@@H](C)CC[C@H]7[C@@]6(C)O)[C@]5(O)C[C@@]42O[C@]13O [Cevadine]
remaining activity at 3.75 µM ([1]; Well no.=3139): 102%
remaining activity at 1.25 µM ([2]; Well no.=3139): 103%

O=C(O)Cc1ccccc1 [Sodium Phenylacetate]
remaining activity at 3.75 µM ([1]; Well no.=1884): 97.8%
remaining activity at 1.25 µM ([2]; Well no.=1884): 94.7%

CC(C)c1nc(CN(C)C(=O)N[C@@H](CCN2CCOCC2)C(=O)N[C@H](CC[C@H](Cc2ccccc2)NC(=O)OCc2cncs2)Cc2ccccc2)cs1 [Cobicistat (GS-9350)]
remaining activity at 3.75 µM ([1]; Well no.=5213): 102%
remaining activity at 1.25 µM ([2]; Well no.=5213): 102%

COC(=O)N[C@H](C(=O)N[C@@H](Cc1ccccc1)[C@@H](O)CN(Cc1ccc(-c2ccccn2)cc1)NC(=O)[C@@H](NC(=O)OC)C(C)(C)C)C(C)(C)C [Atazanavir]
remaining activity at 3.75 µM ([1]; Well no.=1918): 95.7%
remaining activity at 1.25 µM ([2]; Well no.=1918): 97.5%

CCCCC/C=C\C/C=C\C/C=C\C/C=C\CCCC(=O)OC(CO)CO [2-Arachidonoylglycerol]
remaining activity at 3.75 µM ([1]; Well no.=4505): 88.7%
remaining activity at 1.25 µM ([2]; Well no.=4505): 94.8%

CN(C)CCN(Cc1ccccc1)c1ccccn1 [Tripelennamine (hydrochloride)]
remaining activity at 3.75 µM ([1]; Well no.=7663): 98.8%
remaining activity at 1.25 µM ([2]; Well no.=7663): 99.1%

CN1CC[C@@]2(C)c3cc(OC(=O)Nc4ccccc4)ccc3N(C)[C@@H]12 [Phenserine]
remaining activity at 3.75 µM ([1]; Well no.=6093): 89.8%
remaining activity at 1.25 µM ([2]; Well no.=6093): 90.2%

C[C@@]12N[C@@H](Cc3ccccc31)c1ccccc12 [(-)-MK-801 hydrogen maleate]
remaining activity at 3.75 µM ([1]; Well no.=799): 99.2%
remaining activity at 1.25 µM ([2]; Well no.=799): 101%

NC(N)=NCc1cccc(I)c1 [m -Iodobenzylguanidine hemisulfate salt]
remaining activity at 3.75 µM ([1]; Well no.=6075): 97.8%
remaining activity at 1.25 µM ([2]; Well no.=6075): 99.1%

CC(CN(C)C)CN1c2ccccc2CCc2ccccc21 (stereo not shown) [Trimipramine maleate]
remaining activity at 3.75 µM ([1]; Well no.=1333): 102%
remaining activity at 1.25 µM ([2]; Well no.=1333): 104%

NCCc1c[nH]c2ccccc12 [Tryptamine]
remaining activity at 3.75 µM ([1]; Well no.=7365): 99.2%
remaining activity at 1.25 µM ([2]; Well no.=7365): 97.9%

O=C(Nc1ccc(S(=O)(=O)Nc2ccccc2Cl)c(Cl)c1)c1ccccn1 [VU 0364439]
remaining activity at 3.75 µM ([1]; Well no.=4978): 96.2%
remaining activity at 1.25 µM ([2]; Well no.=4978): 96.2%

C=C1C[C@@]23CC[C@H]4[C@@](C)(CCC[C@@]4(C)C(=O)O[C@@H]4O[C@H](CO)[C@@H](O)[C@H](O)[C@H]4O)[C@@H]2CC[C@]1(O[C@@H]1O[C@H](C)[C@@H](O)[C@H](O)[C@@H]1O[C@@H]1O[C@H](CO)[C@@H](O)[C@H](O[C@@H]2O[C@H](CO)[C@@H](O)[C@H](O)[C@H]2O)[C@H]1O)C3 [Rebaudioside C]
remaining activity at 3.75 µM ([1]; Well no.=8446): 95.9%
remaining activity at 1.25 µM ([2]; Well no.=8446): 96%

COc1ccc(-c2ccc(=N)n(CCCC(=O)O)n2)cc1 [SR-95531]
remaining activity at 3.75 µM ([1]; Well no.=1325): 98.9%
remaining activity at 1.25 µM ([2]; Well no.=1325): 103%

O=c1cc(N2CCNCC2)oc2c(-c3ccccc3)cccc12 [LY 303511]
remaining activity at 3.75 µM ([1]; Well no.=2467): 106%
remaining activity at 1.25 µM ([2]; Well no.=2467): 102%

COc1ncc(-c2nc3c(n2C(C)C)[C@H](c2ccc(Cl)cc2)N(c2cc(Cl)cn(C)c2=O)C3=O)c(OC)n1 [Siremadlin]
remaining activity at 3.75 µM ([1]; Well no.=6788): 89.6%
remaining activity at 1.25 µM ([2]; Well no.=6788): 97.9%

Nc1nc(Nc2ccc(S(N)(=O)=O)cc2)nn1C(=O)c1c(F)cccc1F [JNJ-7706621]
remaining activity at 3.75 µM ([1]; Well no.=8260): 92%
remaining activity at 1.25 µM ([2]; Well no.=8260): 91.9%

O=C(NCC(=O)N1CC[C@H](N[C@H]2CC[C@@](O)(c3ccc(-c4ncccn4)cn3)CC2)C1)c1cccc(C(F)(F)F)c1 [PF-4136309]
remaining activity at 3.75 µM ([1]; Well no.=7097): 98.1%
remaining activity at 3.75 µM ([1]; Well no.=8085): 89%
remaining activity at 1.25 µM ([2]; Well no.=7097): 98.3%
remaining activity at 1.25 µM ([2]; Well no.=8085): 98%

O=c1cc(-c2ccc(O)c(O)c2)oc2cc(O)c([C@@H]3O[C@H](CO)[C@@H](O)[C@H](O)[C@H]3O)c(O)c12 [Homoorientin]
remaining activity at 3.75 µM ([1]; Well no.=3291): 100%
remaining activity at 1.25 µM ([2]; Well no.=3291): 95.6%

C[C@H]1CC[C@@]2(OC1)O[C@H]1C[C@H]3[C@@H]4CC[C@@H]5C[C@@H](O)CC[C@]5(C)[C@H]4CC[C@]3(C)[C@H]1[C@@H]2C [Sarsasapogenin]
remaining activity at 3.75 µM ([1]; Well no.=3102): 92.8%
remaining activity at 1.25 µM ([2]; Well no.=3102): 95%

CC(C)(Oc1ccc(C2CC2(Cl)Cl)cc1)C(=O)O (stereo not shown) [Ciprofibrate]
remaining activity at 3.75 µM ([1]; Well no.=41): 93.5%
remaining activity at 1.25 µM ([2]; Well no.=41): 92.6%

N#Cc1cccc(-c2c[nH]c3ncnc(N4CCOCC4)c23)c1 [3-(4-morpholino-7H-pyrrolo[2,3-d]pyrimidin-5-yl)benzonitrile]
remaining activity at 3.75 µM ([1]; Well no.=5684): 99.8%
remaining activity at 1.25 µM ([2]; Well no.=5684): 97.4%

O=C(O)CNC(=O)c1ccccc1 [Hippuric acid]
remaining activity at 3.75 µM ([1]; Well no.=7309): 106%
remaining activity at 1.25 µM ([2]; Well no.=7309): 109%

c1ccc2c(-c3cnn4cc(-c5ccc(N6CCNCC6)cc5)cnc34)ccnc2c1 [LDN193189]
remaining activity at 3.75 µM ([1]; Well no.=4956): 97.7%
remaining activity at 1.25 µM ([2]; Well no.=4956): 99.3%

O=c1c(O)c(-c2cc(O)c(O)c(O)c2)oc2cc(O)cc(O)c12 [Myricetin]
remaining activity at 3.75 µM ([1]; Well no.=838): 102%
remaining activity at 3.75 µM ([1]; Well no.=3324): 108%
remaining activity at 3.75 µM ([1]; Well no.=6244): 96.9%
remaining activity at 1.25 µM ([2]; Well no.=838): 101%
remaining activity at 1.25 µM ([2]; Well no.=3324): 103%
remaining activity at 1.25 µM ([2]; Well no.=6244): 96.2%

Nc1nccc(/C=C/c2ccccc2)n1 [TCN238]
remaining activity at 3.75 µM ([1]; Well no.=7855): 94.5%
remaining activity at 1.25 µM ([2]; Well no.=7855): 99.5%

CC1(C)C=Cc2c(ccc3c2OC[C@@H](c2ccc(O)cc2O)C3)O1 [4-[(3R)-8,8-dimethyl-3,4-dihydro-2H,8H-pyrano[2,3-f]chromen-3-yl]-1,3-benzenediol]
remaining activity at 3.75 µM ([1]; Well no.=5793): 104%
remaining activity at 1.25 µM ([2]; Well no.=5793): 100%

O=C(O)c1ccc(Nc2ncc3c(n2)-c2ccc(Cl)cc2C(c2c(F)cccc2F)=NC3)cc1 [MLN8054]
remaining activity at 3.75 µM ([1]; Well no.=4659): 98.1%
remaining activity at 1.25 µM ([2]; Well no.=4659): 105%

COc1cc2c3cc1Oc1c(OC)c(OC)cc4c1[C@@H](Cc1ccc(O)c(c1)Oc1ccc(cc1)C[C@@H]3N(C)CC2)N(C)CC4
remaining activity at 3.75 µM ([1]; Well no.=3633): 103%
remaining activity at 1.25 µM ([2]; Well no.=3633): 103%

C[N+](C)(C)CCOP(=O)(O)OP(=O)([O-])OC[C@H]1O[C@@H](n2ccc(N)nc2=O)[C@H](O)[C@@H]1O [Citicoline sodium]
remaining activity at 3.75 µM ([1]; Well no.=375): 101%
remaining activity at 1.25 µM ([2]; Well no.=375): 91.9%

CCCCN1C[C@H](O)[C@@H](O)[C@H](O)[C@H]1CO [Miglustat]
remaining activity at 3.75 µM ([1]; Well no.=2252): 95.8%
remaining activity at 1.25 µM ([2]; Well no.=2252): 97.5%

Cn1c(=O)[nH]c2ncn(C)c2c1=O [1,7-Dimethylxanthine]
remaining activity at 3.75 µM ([1]; Well no.=691): 99.7%
remaining activity at 1.25 µM ([2]; Well no.=691): 98.6%

Source: PMC8286840, “Identifying SARS-CoV-2 antiviral compounds by screening for small molecule inhibitors of Nsp3 papain-like protease” (Biochemical Journal, 2021)
